Assay results taken from patent publication US6987103B2, “Treatment of chronic myelogenous leukmia, resistant or intolerant to ST1571, involving homoharringtonine alone or combined with other agents” (Stragen Pharma S.A., priority 2001, dated 2006).

Assays:
[1] = system: accelerated phase chronic myelogenous leukemia; conditions: human, in vivo
Experimental: Description. […] The patient was resistant to interferon alpha, BCNU, HU at the time of initiation of induction with homoharringtonine (2.5 mg/m^2/day, 15 days). After white blood cell and platelet counts recovery, ten further 7-day cycles of homoharringtonine combined with cytarabine (Ara-C) 10 mg (flat dose) daily, were administered. An average of 7 days of daily Ara-C per 28-day cycle was used (see treatment plan of FIG. 1).

[2] = system: chronic phase of Philadelphia positive chronic myelogenous leukemia; assay: Case of patient #15 successively resistant to five drugs including STI571, treated by homoharringtonine; type: in vivo, human
Experimental: After a debulking treatment with hydroxyurea, a combination of interferon alpha (5 MU/m^2/day) and low-dose cytarabine was administered according to a standard regimen (subcutaneous mode of administration, 15 mg/m^2/day, daily, permanently). Then, to maintain hematologic response at the initial level, cytarabine regimen was increased to intermediate dose (200 mg/m^2/day). […] Finally, a treatment based on homoharringtonine alone was initiated. At the time of initiation of homoharringtonine treatment, WBC count was 31,000/μL: 2.5 mg/m^2/day, 14 days.

K562-s = assay: MTS cell proliferation assay, median effect combination analysis with STI571; type: cell-based, human; conditions: STI571:HHT = 27.3:1
Excerpt: (§1) The combination ratios are selected, where possible, such that both drugs are in a range relevant to their achievable serum concentrations. STI571-sensitive and resistant cells are exposed to doubling dilutions of homoharringtonine over a wide range (Table 1). […] The effects of homoharringtonine treatments are plotted and analyzed to produce computed estimations of the relative responses to either homoharringtonine alone or in combination. In this way it is possible to detect synergistic, additive or antagonistic effects. Duplicate or triplicate independent experiments are set up for each cell line/drug combination. In each case the analysis generates plots of CI (Combination Index) versus effect. […] These values are most relevant at high effect levels, as this is the desired physiological level of effect. Subsequently the CI curves can be represented as the average CI values at effects 0.5, 0.75 and 0.9 (IC50, IC75 and IC90 respectively). Cell proliferation is monitored with the CellTiter 96® AQucous One Solution Cell Proliferation Assay (Promega, UK). […] Proliferation is assessed on aliquots taken daily from days 1 to 4 in order to establish the most representative time-point. Replicate experiments are thereafter set up by plating the cells directly into 96-well plates and staining with MTS on day 3. A minimum of 95% viability as assessed by Trypan blue staining is required for the initiation of any experiment. […] Blank wells contained 100 μL RF10. All samples are plated in quadruplicate. […] On day 3, 20 μL of MTS reagent is added to each well, and the plate is re-incubated for a further 3–4 hours for stain development. At the end of this period, the plates are gently agitated and the absorbance of each well at 490 nm is recorded on an automatic microplate reader (MRX, Dynatech, Billingshurst, UK). Averaged blank values (no cells, no drug) are subtracted from sample values, and these corrected A490 values are calculated as percentages of the control cultures grown in the absence of drug. Error bars indicate the range defined in duplicate experiments, and significant differences considered as those which fell outside the region of overlap in the ranges of the means. Such an approach is supported by the non-parametric Mann-Whitney U test.

K562-r = assay: as above; type: cell-based, human; conditions: K562-r (STI571-resistant); STI571:HHT = 27.3:1
Excerpt: as §1

LAMA84-s = assay: as above; type: cell-based, human; conditions: STI571:HHT = 27.3:1
Excerpt: as §1

LAMA84-r = assay: as above; type: cell-based, human; conditions: LAMA84-r (STI571-resistant); STI571:HHT = 27.3:1
Excerpt: as §1

[3] = in vivo; cited from earlier work
[4] = system: Chronic myelogenous leukemia (CML); conditions: in vivo; cited from earlier work

## Nc1ccn([C@@H]2O[C@H](CO)[C@@H](O)[C@@H]2O)c(=O)n1 [cytarabine]
[1]
  adverse events attributable to the agent: Mouth ulceration and alveolar hemorrhage

## COC(=O)[C@H](CCSC)NC(=O)c1ccc(NC[C@@H](N)CS)cc1-c1ccccc1 [farnesyl transferase inhibitor]
[2]; patient #15, after first relapse under interferon alpha
  peripheral blood response: transient peripheral blood response

## COC(=O)C[C@](O)(CCCC(C)(C)O)C(=O)O[C@@H]1C(OC)=C[C@]23CCCN2CCc2cc4c(cc2[C@H]13)OCO4 [homoharringtonine]
[1]
  adverse events attributable to the agent: no non-hematologic adverse events attributable to homoharringtonine
K562-s
  Average CI (Combination index) at FA values of 0.5, 0.75 and 0.9: 1.1
K562-r
  Average CI (Combination index) at FA values of 0.5, 0.75 and 0.9: 0.6
LAMA84-s
  Average CI (Combination index) at FA values of 0.5, 0.75 and 0.9: 1.2
LAMA84-r
  Average CI (Combination index) at FA values of 0.5, 0.75 and 0.9: 0.6
[2]; patient #15, day 17, HHT 2.5 mg/m^2/day, 14 days, 31,000/μL at initiation
  WBC count: 2,400 /μL
[3]
  Drug concentration in serum: 36.6 nM

## interferon alpha
[4]
  median survival: about 7 years
